Test results from the SangsterLogP compilation.

Compound	logP
COc1ccc(CCNC[C@H](O)COc2ccc(-c3ncc(C(N)=O)[nH]3)cc2)cc1OC	0.99
COc1ccc(CCNC[C@H](O)COc2ccc(-c3ncc(Br)[nH]3)cc2Cl)cc1OC	2.73
COc1ccc(CCNC[C@H](O)COc2ccc(Cc3ncc(C)[nH]3)cc2)cc1OC	1.28
CC(C)NC[C@H](O)COc1ccc(Cc2ncc(Br)[nH]2)cc1	1.35
COc1ccc(CCNC[C@H](O)COc2ccc(CCc3ncc(-c4cccs4)[nH]3)cc2)cc1OC	2.08
COc1ccc(CCNC[C@H](O)COc2ccc(-c3ncc(-c4cccs4)[nH]3)cc2C)cc1OC	3.32
COc1ccc(CCNC[C@H](O)COc2ccc(COCc3ncc[nH]3)cc2)cc1OC	1.29
COc1ccc(CCNCC(O)COc2ccc(OCc3ncc[nH]3)cc2)cc1OC (centres undefined)	1.21
CC(C)NCC(O)COc1ccc(-c2ncc[nH]2)cc1 (centres undefined)	0.65
COc1ccc(CCNCC(O)COc2ccc(-c3ncc(C)[nH]3)cc2Br)cc1OC (centres undefined)	2.3
O=C(NCCNCC(O)COc1ccc(-c2ncc[nH]2)cc1)Nc1ccccc1 (centres undefined)	1.19
CCOCCNCC(O)COc1ccc(-c2ncc(-c3cccs3)[nH]2)cc1 (centres undefined)	2.25
CCCNCC(O)COc1ccc(-c2ncc(-c3cccs3)[nH]2)cc1 (centres undefined)	2.84
CC(C)(C)NC[C@H](O)COc1ccc(Cc2ncc(-c3cccs3)[nH]2)cc1	2.57
COc1ccc(CCNCC(O)COc2ccc(-c3ncc(C)[nH]3)cc2OC)cc1OC (centres undefined)	1.89
OC(CNCCc1ccncc1)COc1ccc(-c2ncc(-c3cccs3)[nH]2)cc1 (centres undefined)	2.25
CC(C)NCC(O)COc1ccc(-c2ncc(-c3cccs3)[nH]2)cc1 (centres undefined)	2.18
COc1ccc(CCNC[C@H](O)COc2ccc(Cc3ncc(C(C)=O)[nH]3)cc2)cc1OC	0.87
COc1ccc(CCNC[C@H](O)COc2ccc(-c3ncc(C(C)=O)[nH]3)cc2)cc1OC	1.23
Cc1cnc(Cc2ccc(OC[C@@H](O)CNC(C)(C)C)cc2)[nH]1	1.11
COc1ccc(CCNCC(O)COc2ccc(-c3nccn3C)cc2)cc1OC (centres undefined)	2.08
CCCCNC(=O)NCCNCC(O)COc1ccc(-c2ncc(C)[nH]2)cc1 (centres undefined)	1.24
COc1ccc(CCNCC(O)COc2ccc(-c3ncco3)cc2)cc1OC (centres undefined)	2.6
COc1ccc(CCNC[C@H](O)COc2ccc(Cc3ncc(-c4cccs4)[nH]3)cc2)cc1OC	2.28
CC(C)NC[C@H](O)COc1ccc(-c2ncc(C(C)C)[nH]2)cc1	2.23

Other lines, results leading:

logP	Compound
0.63	COc1ccc(CCNC[C@H](O)COc2ccc(-c3ncc(CO)[nH]3)cc2)cc1OC
2.4	COc1ccc(CCNC[C@H](O)COc2ccc(-c3ncc(Cl)[nH]3)cc2)cc1OC
0.84	CCOCc1cnc(-c2ccc(OC[C@@H](O)CNCCc3ccc(OC)c(OC)c3)cc2)[nH]1
2.3	CCOC(=O)c1cnc(-c2ccc(OC[C@@H](O)CNCCc3ccc(OC)c(OC)c3)cc2)[nH]1
2.06	COCCc1cnc(-c2ccc(OC[C@@H](O)CNCCc3ccc(OC)c(OC)c3)cc2)[nH]1
2.14	COc1ccc(CCNC[C@H](O)COc2ccc(-c3nc(C(C)=O)c(C)[nH]3)cc2)cc1OC
1.71	COCc1cnc(-c2ccc(OC[C@@H](O)CNCCc3ccc(OC)c(OC)c3)cc2)[nH]1
1.9	COc1ccc(CCNC[C@H](O)COc2ccc(-c3ncc(Br)[nH]3)cc2)cc1OC
1.72	COc1ccc(CCNCC(O)COc2ccc(-c3ncc(C)n3C)cc2)cc1OC (centres undefined)
2.69	COc1ccc(CCNC[C@H](O)COc2ccc(-c3nc(Br)c(C)[nH]3)cc2)cc1OC
1.07	COCc1nc(-c2ccc(OC[C@@H](O)CNCCc3ccc(OC)c(OC)c3)cc2)[nH]c1C
2.86	COc1ccc(CCNC[C@H](O)COc2ccc(-c3ncc(C(C)(C)C)[nH]3)cc2)cc1OC
2.35	COc1ccc(CCNC[C@H](O)COc2ccc(-c3nc(Cl)c(C)[nH]3)cc2)cc1OC
2.49	COc1ccc(CCNC[C@H](O)COc2ccc(-c3ncc(C(C)C)[nH]3)cc2)cc1OC
